Measurements as given in patent publication US20260285850A1, “SUBSTITUTED OXAZOLIDINONES AND IMIDAZOLINONES AS HERBICIDES” (FMC CORPORATION, priority 2023, published 2026).

How the values were obtained:
Type in all cases: in vivo
soybean (Glycine max) [1] = test: Test A postemergence application, visual injury rating 0-100; settings: for Soybean plant response rating (0 to 100 scale): Postemergence
How it was run: (§1)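 Compounds formulated in a non-phytotoxic solvent with surfactant are sprayed onto soil of freshly planted loam-sand pots ahead of emergence, or onto emerged plants 2-10 cm tall. After a 10-day greenhouse period, each species is scored visually for injury against untreated controls.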

[2] = test system: barnyardgrass (Echinochloa crus-galli); test: as above; settings: for Barnyardgrass plant response rating (0 to 100 scale): Postemergence
How it was run: as §1

[3] = test system: green foxtail (Setaria viridis); test: as above; settings: for Foxtail, Green plant response rating (0 to 100 scale): Postemergence
How it was run: as §1

[4] = test system: oat, wild (wild oat, Avena fatua); test: as above; settings: for Oat, Wild plant response rating (0 to 100 scale): Postemergence
How it was run: as §1

[5] = test system: ryegrass, Italian (italian ryegrass, Lolium multiflorum); test: as above; settings: for Ryegrass, Italian plant response rating (0 to 100 scale): Postemergence
How it was run: as §1

[6] = test system: ragweed (common ragweed, Ambrosia artemisiifolia); test: as above; settings: for Ragweed plant response rating (0 to 100 scale): Postemergence
How it was run: as §1

[7] = test system: palmer (palmer amaranth, palmer pigweed, Amaranthus palmeri); test: as above
How it was run: as §1

[8] = test system: galium (catchweed bedstraw, Galium aparine); test: as above; settings: Postemergence
How it was run: as §1

[9] = test system: blackgrass (Alopecurus myosuroides); test: as above; settings: for Blackgrass plant response rating (0 to 100 scale): Postemergence
How it was run: as §1

kochia (Bassia scoparia) [10] = test: as above; settings: for Kochia plant response rating (0 to 100 scale): Postemergence
How it was run: as §1

[11] = test system: wheat (Triticum aestivum); test: as above; settings: for Wheat plant response rating (0 to 100 scale): Postemergence
How it was run: as §1

[12] = test system: horseweed (Erigeron canadensis); test: as above; settings: for Horseweed plant response rating (0 to 100 scale): Postemergence
How it was run: as §1

corn (Zea mays) [13] = test: as above; settings: for Corn plant response rating (0 to 100 scale): Postemergence
How it was run: as §1

rice (Oryza sativa) = test: Test B flooded paddy test, visual plant response rating 0-100; settings: 250 g ai/ha, Flood, applied to paddy water, evaluated after 13 days
How it was run: (§2)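 Visual scores versus untreated controls were recorded 13 days after treatment of greenhouse-held plants. At the 2-leaf stage, pots were flooded 3 cm above the soil surface and compounds added straight to the water.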

[14] = test system: barnyardgrass (Echinochloa crusgalli); test: as above; settings: 250 g ai/ha, Flood, applied to paddy water, evaluated after 13 days
How it was run: as §2

[15] = test system: sedge, umbrella (small-flower umbrella sedge, Cyperus difformis); test: as above; settings: 250 g ai/ha, Flood, applied to paddy water, evaluated after 13 days
How it was run: as §2

[16] = test system: ducksalad (Heteranthera limosa); test: as above; settings: 250 g ai/ha, Flood, applied to paddy water, evaluated after 13 days
How it was run: as §2

soybean (Glycine max) [17] = test: Test A preemergence soil spray, visual injury rating 0-100; settings: 10 days
How it was run: as §1

[18] = test system: barnyardgrass (Echinochloa crus-galli); test: as above; settings: 10 days
How it was run: as §1

[19] = test system: green foxtail (Setaria viridis); test: as above; settings: 10 days
How it was run: as §1

[20] = test system: oat, wild (wild oat, Avena fatua); test: as above; settings: 10 days
How it was run: as §1

[21] = test system: ryegrass, Italian (italian ryegrass, Lolium multiflorum); test: as above; settings: 10 days
How it was run: as §1

[22] = test system: ragweed (common ragweed, Ambrosia artemisiifolia); test: as above; settings: 10 days
How it was run: as §1

[23] = test system: palmer (palmer amaranth, palmer pigweed, Amaranthus palmeri); test: as above; settings: 10 days
How it was run: as §1

[24] = test system: blackgrass (Alopecurus myosuroides); test: as above; settings: 10 days
How it was run: as §1

kochia (Bassia scoparia) [25] = test: as above; settings: 10 days
How it was run: as §1

[26] = test system: wheat (Triticum aestivum); test: as above; settings: 10 days
How it was run: as §1

corn (Zea mays) [27] = test: as above; settings: 10 days
How it was run: as §1

[28] = 62 g ai/ha, postemergence, 10 days, 0 = no effect, 100 = complete control
[29] = 16 g ai/ha, greenhouse 10 days, 0 no effect, 100 complete control
[30] = 62 g ai/ha, 0 = no effect, 100 = complete control
[31] = 31 g ai/ha, greenhouse 10 days, 0 no effect, 100 complete control
[32] = 125 g ai/ha, 10 days, 0 is no effect, 100 is complete control
[33] = 31 g ai/ha, 0 = no effect, 100 = complete control
[34] = 125 g ai/ha, 0 = no effect, 100 = complete control

CC1(C(=O)NC2CC=C(C(=O)OCC(F)F)C2)CN(c2cc(F)cc(F)c2)C(=O)O1 (stereo not shown) [Compound 152]
85: Plant response rating, Rice (0 to 100 scale, 0 is no effect and 100 is complete control) (rice (Oryza sativa))
60: Soybean plant response rating (0 to 100 scale) (soybean (Glycine max) [1]; [29]) | Pigweed, Palmer plant response rating (0 to 100 scale) ([7]; Postemergence, 16 g ai/ha, greenhouse 10 days, 0 no effect, 100 complete control) | Soybean plant response rating (0-100) (soybean (Glycine max) [17]; [30]) | Corn plant response rating (0-100) (corn (Zea mays) [27]; [30])
100: Barnyardgrass plant response rating (0-100) [2, 28] | Barnyardgrass plant response rating (0 to 100 scale) [2, 29] | Blackgrass plant response rating (0-100) [9, 28] | Corn plant response rating (0-100) (corn (Zea mays) [13]; [28]) | Corn plant response rating (0 to 100 scale) (corn (Zea mays) [13]; [29]) | Barnyardgrass plant response rating (0-100) [18, 30] | Foxtail, Green plant response rating (0-100) [19, 30]
20: Ragweed plant response rating (0 to 100 scale) [6, 29]
30: Horseweed plant response rating (0 to 100 scale) [12, 29] | Barnyardgrass plant response rating ([18]; 16 g ai/ha, 0 to 100 scale) | Foxtail, Green plant response rating ([19]; 16 g ai/ha, 0 to 100 scale) | Ragweed plant response rating (0-100) [22, 30]
50: Ragweed plant response rating (0-100) [6, 28]
70: Ryegrass, Italian plant response rating (0 to 100 scale) [5, 29] | Galium plant response rating (0 to 100 scale) [8, 29] | Blackgrass plant response rating (0 to 100 scale) [9, 29] | Horseweed plant response rating (0-100) [12, 28] | Oat, Wild plant response rating (0-100) [20, 30] | Ryegrass, Italian plant response rating ([21]; 16 g ai/ha, 0 to 100 scale) | Wheat plant response rating ([26]; 16 g ai/ha, 0 to 100 scale)
90: Foxtail, Green plant response rating (0-100) [3, 28] | Foxtail, Green plant response rating (0 to 100 scale) [3, 29] | Oat, Wild plant response rating (0-100) [4, 28] | Pigweed, Palmer plant response rating (0-100) [7, 28] | Kochia plant response rating (0-100) (kochia (Bassia scoparia) [10]; [28]) | Kochia plant response rating (0 to 100 scale) (kochia (Bassia scoparia) [10]; [29]) | Wheat plant response rating (0-100) [11, 28] | Plant response rating, Barnyardgrass (0 to 100 scale, 0 is no effect and 100 is complete control) [14] | Plant response rating, Sedge, Umbrella (0 to 100 scale, 0 is no effect and 100 is complete control) [15] | Ryegrass, Italian plant response rating (0-100) [21, 30] | Pigweed, Palmer plant response rating (0-100) [23, 30] | Kochia plant response rating (kochia (Bassia scoparia) [25]; 16 g ai/ha, 0 to 100 scale) | Kochia plant response rating (0-100) (kochia (Bassia scoparia) [25]; [30]) | Wheat plant response rating (0-100) [26, 30]
80: Soybean plant response rating (0-100) (soybean (Glycine max) [1]; [28]) | Oat, Wild plant response rating (0 to 100 scale) [4, 29] | Ryegrass, Italian plant response rating (0-100) [5, 28] | Wheat plant response rating (0 to 100 scale) [11, 29] | Plant response rating, Ducksalad (0 to 100 scale, 0 is no effect and 100 is complete control) [16]
10: Corn plant response rating (corn (Zea mays) [27]; 16 g ai/ha, 0 to 100 scale)
0: Soybean plant response rating (soybean (Glycine max) [17]; 16 g ai/ha, 0 to 100 scale) | Oat, Wild plant response rating ([20]; 16 g ai/ha, 0 to 100 scale) | Ragweed plant response rating ([22]; 16 g ai/ha, 0 to 100 scale) | Pigweed, Palmer plant response rating ([23]; 16 g ai/ha, 0 to 100 scale) | Blackgrass plant response rating ([24]; 16 g ai/ha, 0 to 100 scale) | Blackgrass plant response rating (0-100) [24, 30]

CC1(C(=O)NC2C=CC(C(=O)OCC(F)(F)F)C2)CN(c2cc(Cl)cc(Cl)c2)C(=O)O1 (stereo not shown) [Compound 64]
20: Oat, Wild plant response rating (0-100) [20, 33] | Blackgrass plant response rating (0-100) [24, 33]
90: Soybean plant response rating (0 to 100 scale) (soybean (Glycine max) [1]; [32]) | Foxtail, Green plant response rating (0 to 100 scale) [3, 31] | Foxtail, Green plant response rating (0 to 100 scale) [3, 32] | Oat, Wild plant response rating (0 to 100 scale) [4, 31] | Oat, Wild plant response rating (0 to 100 scale) [4, 32] | Ryegrass, Italian plant response rating (0 to 100 scale) [5, 32] | Amaranth, Palmer / Pigweed, Palmer plant response rating (0 to 100 scale) ([7]; Postemergence, 31 g ai/ha, greenhouse 10 days, 0 no effect, 100 complete control) | Amaranth, Palmer / Pigweed, Palmer plant response rating (0 to 100 scale) ([7]; Postemergence, 125 g ai/ha, 10 days, 0 is no effect, 100 is complete control) | Blackgrass plant response rating (0 to 100 scale) [9, 31] | Blackgrass plant response rating (0 to 100 scale) [9, 32] | Wheat plant response rating (0 to 100 scale) [11, 31] | Wheat plant response rating (0 to 100 scale) [11, 32] | Corn plant response rating (0 to 100 scale) (corn (Zea mays) [13]; [31]) | Plant response rating, Ducksalad (0 to 100 scale, 0 is no effect and 100 is complete control) [16] | Barnyardgrass plant response rating (0 to 100 scale) [18, 34] | Foxtail, Green plant response rating (0 to 100 scale) [19, 34] | Ryegrass, Italian plant response rating (0 to 100 scale) [21, 34] | Kochia plant response rating (0 to 100 scale) (kochia (Bassia scoparia) [25]; [34]) | Wheat plant response rating (0 to 100 scale) [26, 34]
70: Foxtail, Green plant response rating (0-100) [19, 33] | Blackgrass plant response rating (0 to 100 scale) [24, 34]
0: Soybean plant response rating (0-100) (soybean (Glycine max) [17]; [33]) | Ragweed plant response rating (0-100) [22, 33] | Corn plant response rating (0-100) (corn (Zea mays) [27]; [33])
50: Ragweed plant response rating (0 to 100 scale) [6, 31] | Horseweed plant response rating (0 to 100 scale) [12, 31] | Plant response rating, Barnyardgrass (0 to 100 scale, 0 is no effect and 100 is complete control) [14] | Oat, Wild plant response rating (0 to 100 scale) [20, 34] | Ryegrass, Italian plant response rating (0-100) [21, 33] | Kochia plant response rating (0-100) (kochia (Bassia scoparia) [25]; [33])
60: Wheat plant response rating (0-100) [26, 33]
80: Soybean plant response rating (0 to 100 scale) (soybean (Glycine max) [1]; [31]) | Ryegrass, Italian plant response rating (0 to 100 scale) [5, 31] | Ragweed plant response rating (0 to 100 scale) [6, 32] | Galium plant response rating (0 to 100 scale) [8, 31] | Galium plant response rating (0 to 100 scale) [8, 32] | Kochia plant response rating (0 to 100 scale) (kochia (Bassia scoparia) [10]; [31]) | Kochia plant response rating (0 to 100 scale) (kochia (Bassia scoparia) [10]; [32]) | Horseweed plant response rating (0 to 100 scale) [12, 32] | Barnyardgrass plant response rating (0-100) [18, 33] | Ragweed plant response rating (0 to 100 scale) [22, 34] | Corn plant response rating (0 to 100 scale) (corn (Zea mays) [27]; [34])
100: Barnyardgrass plant response rating (0 to 100 scale) [2, 31] | Barnyardgrass plant response rating (0 to 100 scale) [2, 32] | Corn plant response rating (0 to 100 scale) (corn (Zea mays) [13]; [32]) | Amaranth, Palmer plant response rating (0-100) [23, 33] | Amaranth, Palmer plant response rating (0 to 100 scale) [23, 34]
40: Soybean plant response rating (0 to 100 scale) (soybean (Glycine max) [17]; [34])
75: Plant response rating, Sedge, Umbrella (0 to 100 scale, 0 is no effect and 100 is complete control) [15]
15: Plant response rating, Rice (0 to 100 scale, 0 is no effect and 100 is complete control) (rice (Oryza sativa))
